10 compounds from ChEMBL document CHEMBL3588817, “Discovery of 4,5,6,7-Tetrahydrobenzo[1,2-d]thiazoles as Novel DNA Gyrase Inhibitors Targeting the ATP-Binding Site” (J Med Chem, 2015) can be followed below.

pIC50: −log10 of the molar value. Some results are limits rather than exact numbers.

Assay [1] concerns Pseudomonas aeruginosa. Nature of the assay: Antibacterial activity against Pseudomonas aeruginosa ATCC 27853 assessed as inhibition of microbial growth by broth microdilution method. It is filed as functional. On the technique in general: Broth dilution looks for growth in wells or tubes with falling amounts of substance.
Assay [2] has as its system Escherichia coli. Nature of the assay: Inhibition of Escherichia coli DNA topoisomerase 4 assessed as residual enzyme activity at 100 uM using relaxed pNO1 plasmid and biotinylated oligonucelotide incubated for 30 mins by fluorescence based DNA relaxation assay.
The subject of assay [3] is Staphylococcus aureus. Nature of the assay: Antibacterial activity against Staphylococcus aureus 25923 assessed as inhibition of microbial growth by broth microdilution method. The assay is classed as functional.
The target of assay [4] is Topoisomerase IV (Staphylococcus aureus) (UniProt P0C1U9+P0C1S7). Nature of the assay: Inhibition of Staphylococcus aureus DNA topoisomerase 4 assessed as residual enzyme activity at 100 uM using relaxed pNO1 plasmid and biotinylated oligonucelotide incubated for 30 mins by fluorescence based DNA relaxation assay. The assay is classed as protein-complex assay.
Assay [5] deals with Escherichia coli. Nature of the assay: Antibacterial activity against wild type Escherichia coli ATCC 25922 assessed as inhibition of microbial growth at 50 uM by broth microdilution method. The assay is classed as functional. Conditions: read-out: GI.
Assay [6] concerns Enterococcus faecalis. Nature of the assay: Antibacterial activity against Enterococcus faecalis ATCC 29212 assessed as inhibition of microbial growth at 50 uM by broth microdilution method. It is filed as functional. Conditions: read-out: GI.
In assay [7] the test system is Pseudomonas aeruginosa. Nature of the assay: Antibacterial activity against Pseudomonas aeruginosa ATCC 27853 assessed as inhibition of microbial growth at 50 uM by broth microdilution method. It is filed as functional. The settings on record: read-out: GI.
Another assay concerns the target DNA gyrase (Escherichia coli, UniProt P0AES4+P0AES6). Nature of the assay: Inhibition of Escherichia coli DNA gyrase using relaxed pNO1 plasmid and biotinylated oligonucelotide incubated for 30 mins by fluorescence based DNA super-coiling assay. It is filed as protein-complex assay.
In assay [8] the test system is Escherichia coli. Nature of the assay: Antibacterial activity against wild type Escherichia coli ATCC 25922 assessed as inhibition of microbial growth by broth microdilution method. The assay is classed as functional.
The test system of assay [9] is Staphylococcus aureus. Nature of the assay: Antibacterial activity against Staphylococcus aureus 25923 assessed as inhibition of microbial growth at 50 uM by broth microdilution method. The assay is classed as functional. The settings on record: read-out: GI.
In assay [10] the target is DNA gyrase (Staphylococcus aureus) (UniProt P0A0K8+P20831). Nature of the assay: Inhibition of Staphylococcus aureus DNA gyrase assessed as residual enzyme activity at 100 uM using relaxed pNO1 plasmid and biotinylated oligonucelotide incubated for 30 mins by fluorescence based DNA super-coiling assay. It is filed as protein-complex assay.
Assay [11] has as its system Enterococcus faecalis. Nature of the assay: Antibacterial activity against Enterococcus faecalis ATCC 29212 assessed as inhibition of microbial growth by broth microdilution method. The assay is classed as functional.
Assay [12] has as its system Escherichia coli. Nature of the assay: Antibacterial activity against efflux deficient Escherichia coli tolC::Tn10 lacking functional tolC gene by broth microdilution method.
Assay [13] deals with Escherichia coli. Nature of the assay: Antibacterial activity against Escherichia coli imp4213::Tn10 by broth microdilution method. The assay is classed as functional.
Assay [14] has as its system Escherichia coli. Nature of the assay: Antibacterial activity against wild type Escherichia coli ATCC 25922 by broth microdilution method. The assay is classed as functional.

Chain of DNA gyrase (Staphylococcus aureus) (P0A0K8 2-644 limits assumed): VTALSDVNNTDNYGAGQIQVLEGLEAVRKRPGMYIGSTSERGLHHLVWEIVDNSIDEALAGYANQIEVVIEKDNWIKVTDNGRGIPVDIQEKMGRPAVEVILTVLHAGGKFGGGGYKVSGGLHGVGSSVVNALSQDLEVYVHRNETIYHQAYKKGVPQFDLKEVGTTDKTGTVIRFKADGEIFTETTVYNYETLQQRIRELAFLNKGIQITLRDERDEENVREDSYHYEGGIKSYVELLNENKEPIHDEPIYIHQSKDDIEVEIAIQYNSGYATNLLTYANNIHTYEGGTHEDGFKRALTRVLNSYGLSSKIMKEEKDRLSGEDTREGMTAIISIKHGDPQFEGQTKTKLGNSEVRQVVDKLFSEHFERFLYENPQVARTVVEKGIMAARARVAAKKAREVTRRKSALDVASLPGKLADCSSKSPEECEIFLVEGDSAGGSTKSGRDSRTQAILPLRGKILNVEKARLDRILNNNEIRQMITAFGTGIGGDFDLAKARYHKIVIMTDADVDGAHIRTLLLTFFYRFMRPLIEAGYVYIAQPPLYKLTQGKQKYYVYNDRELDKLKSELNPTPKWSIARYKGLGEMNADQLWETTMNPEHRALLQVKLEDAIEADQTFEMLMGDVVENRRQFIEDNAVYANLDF
Chain of DNA gyrase (Staphylococcus aureus) (P20831 whole entry partner): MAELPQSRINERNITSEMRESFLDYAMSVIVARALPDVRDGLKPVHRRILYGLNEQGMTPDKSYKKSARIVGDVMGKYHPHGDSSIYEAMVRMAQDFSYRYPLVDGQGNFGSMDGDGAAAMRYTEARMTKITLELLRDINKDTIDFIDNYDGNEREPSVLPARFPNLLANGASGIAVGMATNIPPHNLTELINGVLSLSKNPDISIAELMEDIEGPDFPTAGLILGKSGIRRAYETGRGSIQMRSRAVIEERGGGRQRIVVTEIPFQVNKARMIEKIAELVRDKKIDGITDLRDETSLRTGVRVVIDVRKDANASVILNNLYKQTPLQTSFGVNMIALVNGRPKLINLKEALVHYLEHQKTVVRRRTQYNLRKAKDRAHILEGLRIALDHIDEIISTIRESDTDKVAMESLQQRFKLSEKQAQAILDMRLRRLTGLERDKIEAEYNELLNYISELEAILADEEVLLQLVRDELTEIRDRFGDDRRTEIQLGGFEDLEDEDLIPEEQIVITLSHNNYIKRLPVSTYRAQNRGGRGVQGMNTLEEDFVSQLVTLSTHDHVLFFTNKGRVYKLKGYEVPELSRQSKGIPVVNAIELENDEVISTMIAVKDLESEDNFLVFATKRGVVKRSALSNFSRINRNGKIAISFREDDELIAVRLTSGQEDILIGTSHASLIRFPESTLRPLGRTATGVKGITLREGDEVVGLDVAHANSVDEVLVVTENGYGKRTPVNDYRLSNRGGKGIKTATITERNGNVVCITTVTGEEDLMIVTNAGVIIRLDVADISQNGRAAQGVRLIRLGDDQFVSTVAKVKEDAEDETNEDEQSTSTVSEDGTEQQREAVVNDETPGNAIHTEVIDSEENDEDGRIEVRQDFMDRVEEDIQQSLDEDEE

As usually defined, the MIC is the lowest concentration found to suppress growth. As a reminder, the pIC50 is −log10 of the IC50, conventionally taken in molar units. A low value points to a large IC50. In the case of `COC(=O)CCC(=O)Nc1nc2c(s1)C[C@@H](NC(=O)c1cc3ccccc3[nH]1)CC2`, the MIC in the assay with Pseudomonas aeruginosa [1], with Staphylococcus aureus [3], in the assay with Escherichia coli [8] and with Enterococcus faecalis [11] was greater than 125 µM each time. In addition, the Activity with Escherichia coli [2] is 101%; in [4], 104%; in assay [10] it was 87%. Also, the inhibition of growth at 50 µM with Escherichia coli [5], with Enterococcus faecalis [6], with Pseudomonas aeruginosa [7] and in the assay with Staphylococcus aureus [9] was less than 50% each time. On DNA gyrase, this compound showed a negative-log IC50 (pIC50) of 5.04.

For `O=C(O)CC(=O)Nc1nc2c(s1)C[C@@H](NC(=O)c1cc(Br)c[nH]1)CC2`, the MIC in the assay on Pseudomonas aeruginosa [1], with Staphylococcus aureus [3], in the assay on Escherichia coli [8] and in the assay on Enterococcus faecalis [11] was greater than 125 µM throughout. For the same compound, the Activity with Escherichia coli [2] came out at 96%; in assay [4] it was 97%; in assay [10], 110%. Moreover, the inhibition of growth at 50 µM in the assay with Escherichia coli [5], in the assay on Enterococcus faecalis [6], in the assay on Pseudomonas aeruginosa [7] and in the assay with Staphylococcus aureus [9] was less than 50% throughout. Moreover, the pIC50 against DNA gyrase was 4.85.

In the case of `O=C1CCN2C(=N1)SC1=C2CC[C@H](NC(=O)c2cc(Br)c(Br)[nH]2)C1`, the MIC is greater than 256 µg/mL against Escherichia coli [12]; greater than 125 µM in the assay with Pseudomonas aeruginosa [1]; greater than 125 µM in the assay on Staphylococcus aureus [3]; greater than 256 µg/mL against Escherichia coli [13]; greater than 256 µg/mL in the assay on Escherichia coli [14]; greater than 125 µM with Escherichia coli [8]. Further, the MIC in the assay with Enterococcus faecalis [11] is greater than 125 µM. The inhibition of growth at 50 µM in the assay with Escherichia coli [5], in the assay on Enterococcus faecalis [6], in the assay with Pseudomonas aeruginosa [7] and with Staphylococcus aureus [9] was less than 50% each time. On DNA gyrase, this compound gave a pIC50 of 4.92.

As for `Nc1nc2c(s1)C[C@@H](NC(=O)c1cc(Br)c[nH]1)CC2`, the minimum inhibitory concentration (MIC) with Pseudomonas aeruginosa [1], in the assay with Staphylococcus aureus [3], in the assay with Escherichia coli [8] and with Enterococcus faecalis [11] was greater than 125 µM in each case. For the same compound, the inhibition of growth at 50 µM in the assay on Escherichia coli [5], in the assay on Enterococcus faecalis [6], in the assay on Pseudomonas aeruginosa [7] and in the assay on Staphylococcus aureus [9] was less than 50% throughout. In addition, the pIC50 on DNA gyrase is 3.28.

In the case of `COC(=O)CC(=O)Nc1nc2c(s1)C[C@@H](NC(=O)c1cc3ccccc3[nH]1)CC2`, the minimum inhibitory concentration (MIC) in the assay on Escherichia coli [12] is greater than 256 µg/mL; in the assay on Pseudomonas aeruginosa [1] it was greater than 125 µM; in the assay on Staphylococcus aureus [3] it was greater than 125 µM; with Escherichia coli [13], greater than 256 µg/mL; in the assay on Escherichia coli [14], greater than 256 µg/mL; in the assay on Escherichia coli [8], greater than 125 µM. For the same compound, the MIC in the assay on Enterococcus faecalis [11] is greater than 125 µM. The inhibition of growth at 50 µM in the assay on Escherichia coli [5], with Enterococcus faecalis [6], with Pseudomonas aeruginosa [7] and in the assay on Staphylococcus aureus [9] was less than 50% each time. For the same compound, on DNA gyrase, the pIC50 is 4.46.

Consider `Nc1nc2c(s1)CC(CNC(=O)c1cc(Br)c(Br)[nH]1)CC2` (centres undefined), for which the pIC50 at DNA gyrase was 3.92.

Regarding `Nc1ncc2c(n1)CCC(CNC(=O)c1cc(Br)c(Br)[nH]1)C2` (centres undefined), the pIC50 at DNA gyrase was 3.77.

Regarding `Nc1nc2c(s1)C[C@@H](NC(=O)c1cc3ccccc3[nH]1)CC2`, the Activity with Escherichia coli [2] stood at 103%; in assay [4], 100%; in assay [10], 87%. Besides, at DNA gyrase, the pIC50 is 4.68.

On to `Nc1nc2c(s1)C[C@@H](NC(=O)c1cc3cc(F)ccc3[nH]1)CC2`, for which the MIC in the assay with Escherichia coli [12] was greater than 256 µg/mL; in the assay with Pseudomonas aeruginosa [1], greater than 125 µM; with Staphylococcus aureus [3], greater than 125 µM; against Escherichia coli [13] it was greater than 256 µg/mL; with Escherichia coli [14], greater than 256 µg/mL; in the assay on Escherichia coli [8] it was greater than 125 µM. For the same compound, in the assay on Enterococcus faecalis [11], the MIC was greater than 125 µM. Besides, the inhibition of growth at 50 µM in the assay with Escherichia coli [5], with Enterococcus faecalis [6], in the assay with Pseudomonas aeruginosa [7] and in the assay with Staphylococcus aureus [9] was less than 50% in each case. In addition, the pIC50 at DNA gyrase is 3.57.

Regarding `Nc1ncc2c(n1)CCC(NC(=O)c1cc(Cl)c(Cl)[nH]1)C2` (centres undefined), the Activity stood at 96% in the assay on Escherichia coli [2], 106% in assay [4] and 90% in assay [10]. This compound also showed a pIC50 against DNA gyrase of 5.24.
